{
  "source": "paper PMC4352194",
  "about": "“Physicochemical and Biological Properties of Oxovanadium(IV), Cobalt(II) and Nickel(II) Complexes with Oxydiacetate Anions” (Biological Trace Element Research, 2014)",
  "key": {"[1]": {"assay": "Potentiometric titration: dissociation constants of oxydiacetic acid in DMSO-water", "assay_type": "physicochemical", "conditions": "298.15 K", "description": "(§1) Potentiometric titrations were performed in a 30-mL thermostated (298.15 ± 0.10 K) cell using the Cerko Lab System microtitration unit fitted with a 5-mL Hamilton’s syringe, a pH combined electrode (Schott–BlueLine 16 pH type) and a self-made measuring cell equipped with a magnetic stirrer. The temperature was controlled using the Lauda E100 circulation thermostat. In aqueous solutions, the electrode was calibrated according to IUPAC recommendations. In binary systems (10–50 % v/v DMSO:H2O), the electrode calibration was performed by the Gran’s method using the GLEE program. For this purpose, the HClO4 solution was titrated with tetrabutylammonium hydroxide (Bu4NOH) solution both at the same mole fraction of organic solvent (10–50 (v/v%) DMSO). The syringe was calibrated by a weight method. The double distilled water of conductivity approximately 0.18 μS/cm was used throughout for the preparation of aqueous solutions. Other reagents used in the experiments were purchased from Sigma-Aldrich. They were as follows: VOSO4 (≥99.99 % trace metals basis), Co(NO3)2·6H2O (ACS reagent, ≥99 %), Ni(NO3)2·6H2O (99.999 %) and 2,2′-oxydiacetic acid (H2ODA, 98 %). All the solutions were prepared immediately before measurements. The compositions of the titrand solutions used in the experiments were as follows: (a) 2 mM Ni^2+ (Co^2+ or VO^2+), 5 mM H2ODA, 5 mM HClO4, (b) 2.5 mM H2ODA (for binary systems). The solutions (Vo = 5.0 mL) were potentiometrically titrated with the standardized 0.098 M NaOH solution or with the standardized 0.025 M Bu4NOH solution (in binary systems) in the pH range from 2.5 to 11.0. The titrant was added to the titrand in increments of 0.01 mL, with a pause of 60 s. Each titration was repeated at least three times in order to check the reproducibility of the data. The stability constants of the complexes were determined using the Hyperquad2008 program. The concentration distribution of various complex species existing in the solution as a function of pH was obtained using the HySS program.\nTo assess the influence of DMSO as a co-solvent on the stability of the complexes, its effect on the dissociation constants of H2ODA was investigated potentiometrically in the first instance. The representative pH-titration curves for oxydiacetic acid at 298.15 K in 0, 30 and 50 % (v/v) DMSO-water binary systems are shown in Fig. 2, whereas the calculated dissociation constants are collected in Table 3. In the calculations, the ionization constants of the solvents, pK s, were taken from the literature."}, "[2]": {"assay": "Potentiometric titration: stability constants of the complexes", "assay_type": "physicochemical", "conditions": "PT, 298.15 K, aqueous", "description": "as §1\nThe equilibrium constants defined by Eqs. (1) and (2):1 pM+qL+rH=MpLqHr 2 βpqr=MpLqHr/M^pL^qH^r (where M is VO^2+, Co^2+ or Ni^2+, L denotes the oxydiacetate ion, H is the proton and p, q, r are stoichiometric coefficients for the reaction) were refined by least-squares calculations using the Hyperquad2008 (version 5.2.19) computer program. For the oxovanadium(IV) system, the formation of the hydroxo complexes of VO(IV) were taken into account in the calculations of the stability constants. The following formation constants were taken from the literature and were fixed: logβ 10–1 = −5.94, logβ 20–2 = −6.95 and logβ 10–3 = −18. The equilibrium models presented in Table 2 have given the best fitting of the calculated data to the experimental ones."}, "[3]": {"system": "Bacillus subtilis", "assay": "Disc diffusion test", "assay_type": "cell-based", "conditions": "B. subtilis, 100 μg/disc", "description": "(§2) The antimicrobial activity of complex compounds was assessed against Bacillus subtilis, Escherichia coli, Enterococcus faecalis, Pseudomonas aeruginosa, Staphylococcus aureus, Staphylococcus epidermidis (all strains were from the collection of the Department of Molecular Biology, University of Gdańsk). All bacteria were cultured in the Luria-Bertani (LB) broth at 310.15 K in the air with shaking. LB agar plates were prepared by the supplementation of LB broth with the 1.5 % bacteriological agar. Stock solutions of complex compounds were freshly prepared in the LB broth at the concentration of 25 mg/mL. Aliquots of 0.05 mL of bacterial culture at the optical density at 600 nm of 0.1 (inoculum 5 × 10^6 cells per plate) were spread on LB agar plates. Sterile filter paper discs (of 6 mm diameter) were impregnated with solutions of complex compounds prepared in the deionized water at the following amounts: 0.1, 0.2, 0.5 and 1.0 mg per disc and placed on agar plates. After an overnight incubation at 310.15 K, zones of bacterial growth inhibition were measured. Neomycin at the amount of 0.1 mg/disc was used as a control."}, "[4]": {"system": "Enterococcus faecalis", "assay": "Disc diffusion test", "assay_type": "cell-based", "conditions": "E. faecalis, 100 μg/disc", "description": "as §2"}, "[5]": {"system": "Pseudomonas aeruginosa", "assay": "Disc diffusion test", "assay_type": "cell-based", "conditions": "P. aeruginosa, 100 μg/disc", "description": "as §2"}, "[6]": {"system": "Staphylococcus aureus", "assay": "Disc diffusion test", "assay_type": "cell-based", "conditions": "S. aureus, 100 μg/disc", "description": "as §2"}, "[7]": {"system": "Escherichia coli", "assay": "Disc diffusion test", "assay_type": "cell-based", "conditions": "E. coli, 100 μg/disc", "description": "as §2"}, "[8]": {"system": "Staphylococcus epidermidis", "assay": "Disc diffusion test", "assay_type": "cell-based", "conditions": "S. epidermidis, 100 μg/disc", "description": "as §2"}, "[9]": {"parameters": "method as in earlier work", "conditions": "fixed in the calculations; cited from earlier work"}, "[10]": {"parameters": "method as in doi:10.1016/j.molstruc.2011.03.036, PMID 23047227", "conditions": "cited from earlier work"}},
  "data": [
    {"smiles": "O=C(O)COCC(=O)O", "note": "[H2ODA, 2,2′-oxydiacetic acid]", "values": [
      {"measurement": "pK a1 (H2ODA = HODA^− + H^+)", "setting": "[1]; DMSO 0 % v/v", "value": "2.90 (±0.05)"},
      {"measurement": "pK a2 (HODA^− = ODA^2− + H^+)", "setting": "[1]; DMSO 0 % v/v", "value": "4.28 (±0.08)"},
      {"measurement": "pK a1 (H2ODA = HODA^− + H^+)", "setting": "[1]; DMSO 10 % v/v", "value": "3.11 (±0.04)"},
      {"measurement": "pK a2 (HODA^− = ODA^2− + H^+)", "setting": "[1]; DMSO 10 % v/v", "value": "4.52 (±0.02)"},
      {"measurement": "pK a1 (H2ODA = HODA^− + H^+)", "setting": "[1]; DMSO 20 % v/v", "value": "3.28 (±0.02)"},
      {"measurement": "pK a2 (HODA^− = ODA^2− + H^+)", "setting": "[1]; DMSO 20 % v/v", "value": "4.69 (±0.02)"},
      {"measurement": "pK a1 (H2ODA = HODA^− + H^+)", "setting": "[1]; DMSO 30 % v/v", "value": "3.42 (±0.04)"},
      {"measurement": "pK a2 (HODA^− = ODA^2− + H^+)", "setting": "[1]; DMSO 30 % v/v", "value": "4.91 (±0.02)"},
      {"measurement": "pK a1 (H2ODA = HODA^− + H^+)", "setting": "[1]; DMSO 40 % v/v", "value": "3.61 (±0.03)"},
      {"measurement": "pK a2 (HODA^− = ODA^2− + H^+)", "setting": "[1]; DMSO 40 % v/v", "value": "5.16 (±0.02)"},
      {"measurement": "pK a1 (H2ODA = HODA^− + H^+)", "setting": "[1]; DMSO 50 % v/v", "value": "3.76 (±0.03)"},
      {"measurement": "pK a2 (HODA^− = ODA^2− + H^+)", "setting": "[1]; DMSO 50 % v/v", "value": "5.46 (±0.03)"},
      {"measurement": "logβ 011 (LH)", "setting": "[2]; fitted in the M = Co^2+ system", "value": "4.16 (±0.09)"},
      {"measurement": "logβ 012 (LH2)", "setting": "[2]; fitted in the M = Co^2+ system", "value": "7.26 (±0.06)"},
      {"measurement": "logβ 011 (LH)", "setting": "[2]; fitted in the M = Ni^2+ system", "value": "4.12 (±0.01)"},
      {"measurement": "logβ 012 (LH2)", "setting": "[2]; fitted in the M = Ni^2+ system", "value": "6.97 (±0.01)"},
      {"measurement": "logβ 011 (LH)", "setting": "[2]; fitted in the M = VO^2+ system", "value": "4.20 (±0.05)"},
      {"measurement": "logβ 012 (LH2)", "setting": "[2]; fitted in the M = VO^2+ system", "value": "7.25 (±0.05)"}
    ]},
    {"smiles": "NC[C@@H]1O[C@H](O[C@H]2[C@@H](O)[C@H](O[C@@H]3[C@@H](O)[C@H](N)C[C@H](N)[C@H]3O[C@H]3O[C@H](CN)[C@@H](O)[C@H](O)[C@H]3N)O[C@@H]2CO)[C@H](N)[C@@H](O)[C@@H]1O", "note": "[Neo, Neomycin, reference compound]", "values": [
      {"measurement": "Zone of growth inhibition", "setting": "[3]", "value": 21, "unit": "mm"},
      {"measurement": "Zone of growth inhibition", "setting": "[4]", "value": 16, "unit": "mm"},
      {"measurement": "Zone of growth inhibition", "setting": "[5]", "value": 17, "unit": "mm"},
      {"measurement": "Zone of growth inhibition", "setting": "[6]", "value": 18, "unit": "mm"},
      {"measurement": "Zone of growth inhibition", "setting": "[7]", "value": 15, "unit": "mm"},
      {"measurement": "Zone of growth inhibition", "setting": "[8]", "value": 25, "unit": "mm"}
    ]},
    {"smiles": "[O]=[V+2]", "note": "[VO(IV)]", "values": [
      {"measurement": "logβ 10–1 (hydroxo complex formation constant)", "setting": "[9]", "value": "−5.94"},
      {"measurement": "logβ 10–3 (hydroxo complex formation constant)", "setting": "[9]", "value": "−18"},
      {"measurement": "logβ 20–2 (hydroxo complex formation constant)", "setting": "[9]", "value": "−6.95"}
    ]},
    {"smiles": "Cc1ccncc1.O.O.O.O=C([O-])COCC(=O)[O-].[Cu+2]", "note": "[[Cu(ODA)(4-pic)(H2O)]∙2H2O]", "values": [
      {"measurement": "SOD activity", "setting": "[10]", "value": "considerable SOD activity"}
    ]},
    {"smiles": "O.O.O.O.O.O=C([O-])COCC(=O)[O-].[Cu+2].c1ccc(-c2ccccn2)nc1", "note": "[[Cu(ODA)(bipy)(H2O)]∙4H2O]", "values": [
      {"measurement": "SOD activity", "setting": "[10]", "value": "considerable SOD activity"}
    ]}
  ]
}
